The record followed here is patent US10618907B2, “Cell-permeable, cell-compatible, and cleavable linkers for covalent tethering of functional elements” (Promega Corporation, priority 2015, dated 2020).

“Also recorded” adds a separate entry of the source.

In assay [1] the test system is HALOTAG protein. The conditions noted are these: 1 μM conjugate, up to 60 min, lysate of cells expressing HALOTAG fusion.
Procedure: The 4 BIRB* conjugates were compared for binding kinetics to a HALOTAG protein in a cell lysate or inside live cells. Binding kinetics to HALOTAG in lysate was measured by adding the BIRB*-chloroalkane conjugates to a lysate prepared from cells expressing a HALOTAG fusion protein at a final concentration of 1 μM. After 0-60 minutes incubation, a fraction of each reaction taken at different time points (each containing a different BIRB* conjugate) was removed, HALGOTAG TMR-fluorescent ligand (Promega Corporation) was added to a final concentration of 1 μM and allowed to bind to the HALOTAG protein (which remained unbound). The time point fractions were resolved on SDS-PAGE and scanned on a Typhoon 9400 fluorescent imager (GE Healthcare). Bands were quantitated using IMAGEQUANT (GE Healthcare), and binding kinetics were determined as the percent binding with time relative to time zero when no chloroalkylated compound was added.
Binding kinetics to HALOTAG in lysate (FIG. 23A) was measured by treating a lysate prepared from cells, expressing a HALOTAG fusion protein, with the Ibrutinib chloroalkane conjugates at a final concentration of 1 μM for up 60 minutes. After a specified incubation time, an aliquot was removed and treated with HALOTAG TMR-fluorescent ligand (Promega Corporation) at a final concentration of 1 μM to label the remaining unbound HALOTAG fusion protein. The aliquots were resolved on SDS-PAGE and scanned on a Typhoon 9400 fluorescent imager (GE Healthcare). Bands were quantitated using IMAGEQUANT (GE Healthcare), and binding kinetics was determined as the percent binding over time relative to time zero when no chloroalkane-tagged compound added.
Binding kinetics to HALOTAG in lysate (FIG. 31A) were measured by treating a lysate prepared from cells expressing a HALOTAG fusion protein with the BIRB796 chloroalkane conjugates at a final concentration of 1 μM for up to 60 minutes. After a specified incubation time, an aliquot was removed and treated with HALOTAG TMR-fluorescent ligand (Promega Corporation) at a final concentration of 1 μM to label the remaining unbound HALOTAG fusion protein. The aliquots were resolved on SDS-PAGE and scanned on a Typhoon 9400 fluorescent imager (GE Healthcare). Bands were quantitated using IMAGEQUANT (GE Healthcare), and binding kinetics was determined as the percent binding over time relative to time zero where no chloroalkane-tagged compound was added.
In assay [2] the target is T1, BTK:NLuc fusion (Homo sapiens, UniProt Q06187).
T1 construct: expressed in transfected cells
T1 sequence (Q06187 whole entry, species assumed, the tested form may be a part): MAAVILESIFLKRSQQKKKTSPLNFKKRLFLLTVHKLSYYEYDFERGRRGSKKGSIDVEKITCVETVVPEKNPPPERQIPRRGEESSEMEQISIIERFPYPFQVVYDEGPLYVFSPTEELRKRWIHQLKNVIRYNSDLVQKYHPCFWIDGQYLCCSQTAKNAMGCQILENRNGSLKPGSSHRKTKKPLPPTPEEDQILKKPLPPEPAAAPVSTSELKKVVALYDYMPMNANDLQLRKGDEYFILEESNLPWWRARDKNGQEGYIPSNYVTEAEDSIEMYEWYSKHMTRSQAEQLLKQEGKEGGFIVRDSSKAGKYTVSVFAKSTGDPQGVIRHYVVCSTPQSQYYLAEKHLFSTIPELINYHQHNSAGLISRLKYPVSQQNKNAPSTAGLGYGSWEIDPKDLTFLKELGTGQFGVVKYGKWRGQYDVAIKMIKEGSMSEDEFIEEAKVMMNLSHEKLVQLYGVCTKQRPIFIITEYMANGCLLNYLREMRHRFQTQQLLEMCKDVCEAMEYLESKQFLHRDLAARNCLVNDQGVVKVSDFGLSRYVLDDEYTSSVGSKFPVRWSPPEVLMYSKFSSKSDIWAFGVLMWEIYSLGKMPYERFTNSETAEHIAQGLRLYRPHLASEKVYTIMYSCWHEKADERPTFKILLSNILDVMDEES
The experiment in a line: Capture efficiency of BTK:NLuc fusion onto HALOTAG coated magnetic beads. The format is binding. The conditions noted are these: cell lysate, 1 μM conjugate, 2 hour. As for the experimental part: To interrogate capture efficiency of an interacting cellular target, a known target of Ibrutinib, BTK, was genetically fused to NANOLUC (NLuc) luciferase reporter (Promega Corporation). Since Ibrutinib is a covalent inhibitor of BKT, a TEV recognition site was incorporated between BTK and NLuc to allow proteolytic release of NLuc from the beads. Following a 2 hour treatment of cell lysate (from cells expressing the BTK:NLuc fusion) with 1 μM Ibrutinib chloroalkane conjugates (final concentration), the Ibrutinib chloroalkane conjugates, and their interacting BTK:NLuc target, were captured onto HALOTAG coated magnetic beads (Promega Corporation). Capture efficiency was determined as the percent of lost in bioluminescence in the unbound fractions relative to the untreated cell lysate.

For assay [3], the system named is TNFα secretion in LPS stimulated THP-1 cells. The experiment in a line: Inhibition of TNFα secretion in LPS stimulated THP-1 cells (ELISA). The format is cell-based, human. The following applies: 2 h compound, LPS 250 ng/ml 24 h. How it is done:
Bioactivity was measured through inhibition of TNFα secretion in LPS stimulated THP-1 cells (FIGS. 8A-8C). THP-1 cells were plated into wells of 96-well plates at 100,000 cells/well, treated with serial dilutions of BIRB796 conjugates for 2 hours, and then stimulated for 24 hours with LPS (Sigma) at final concentration of 250 ng/ml. The supernatant was analyzed for human TNFα secretion by ELISA (R&D Systems). […] Thus, it imposes minimal impact on the chloroalkane features.
Inhibition of mitogen-activated protein kinases (MAPK) by BIRB796 reduces production of proinflammatory cytokines such as TNFα. Influence of the linkers on BIRB796 potency was tested by comparing the BIRB796 conjugates for inhibition of TNFα secretion from LPS-stimulated THP-1 cells (FIG. 32). THP-1 cells were plated in 96-well plates at 100,000 cells/well, treated with serial dilutions of BIRB796 (Cayman Chemical) and BIRB796-chloroalkane conjugates for 2 h, and then stimulated with LPS (Sigma) at final concentration of 250 ng mL−1 for 24 h. Supernatants were analyzed for human TNFα secretion by ELISA (R&D systems). Results indicates inverse correlation between the length of the cleavable chloroalkane linker and its influence on BIRB796 potency.

Assay [4] concerns the target T1, BTK:NLuc fusion. The experiment in a line: Release of captured BTK:NLuc from HALOTAG beads by TEV or palladium-catalyzed cleavage, western. The following applies: anti-NLuc antibody. As for the experimental part:
To interrogate the efficiency of palladium-catalyzed cleavage of these linkers, the release of BTK:NLuc fusion covalently captured onto the HALOTAG beads was determined by two methods: i) TEV proteolytic cleavage and ii) palladium-catalyzed cleavage (FIG.
24B). TEV proteolytic cleavage of the fusion would lead to the release of NLuc while palladium catalyzed cleavage of the allyl carbamate group within the chloroalkane linker would result with the release of BTK:NLuc.

In assay [5] the test system is STATS reporter expression. The experiment in a line: In-cell inhibition of STATS reporter expression by ponatinib conjugates. Type of assay: cell-based. The conditions noted are these: cellular assay. An excerpt: CA-T4E contains 4 carbamate groups, one of them essential for rapid binding kinetics to HALOTAG. Two additional linkers were generated, one where the three other carbamates were replaced with amides, and the other where the two allyl carbamate groups were replaced with allyl ether linkages. […] The linkers were compared for their influence on binding to HALOTAG and ABL1 in biochemical and cellular assays.

Assay [6] concerns HALOTAG protein. The conditions noted are these: 10 μM conjugate, up to 90-120 min, live cells expressing HALOTAG.
Procedure: Binding kinetics to HALOTAG inside cells was measured by treating live cells expressing a HALOTAG protein with the BIRB* chloroalkane conjugates at a final concentration of 10 μM. After 0-120 minutes incubation time points, the medium was replaced with medium containing 5 μM HALOTAG TMR-fluorescent ligand, and the cells were incubated for additional 15 minutes allowing the TMR-fluorescent ligand to bind to the HALOTAG protein (which remained unbound). After the media was removed, the cells were lysed with a detergent lysis buffer, and the time points were analyzed as described above.
Both conjugates were compared for binding kinetics to HALOTAG inside live cells and for bioactivity. Binding kinetics to HALOTAG inside cells was measured by treating live cells expressing a HALOTAG protein with the BIRB796 chloroalkane conjugates at a final concentration of 10 μM. […] Bands were quantitated, and the binding kinetics were determined as the percent binding with time relative to time zero when no chloroalkylated compound was added.
Binding kinetics to HALOTAG inside cells (FIG. 23B) was measured by treating live cells, expressing a HALOTAG fusion protein, with the Ibrutinib chloroalkane conjugates at a final concentration of 10 μM for up to 90 minutes. […] Cells were then lysed with a detergent lysis buffer, and the samples at the various time points were analyzed as described above. […]
Assay [7] has as its target purified ABL1 (Homo sapiens, UniProt P00519). The assay is described as follows: Inhibition of purified ABL1 by ponatinib conjugates. The format is biochemical. From the text: Two additional linkers were generated, one where the three other carbamates were replaced with amides, and the other where the two allyl carbamate groups were replaced with allyl ether linkages. […] The linkers were compared for their influence on binding to HALOTAG and ABL1 in biochemical and cellular assays.

Sequence of purified ABL1 (P00519 whole entry, species assumed): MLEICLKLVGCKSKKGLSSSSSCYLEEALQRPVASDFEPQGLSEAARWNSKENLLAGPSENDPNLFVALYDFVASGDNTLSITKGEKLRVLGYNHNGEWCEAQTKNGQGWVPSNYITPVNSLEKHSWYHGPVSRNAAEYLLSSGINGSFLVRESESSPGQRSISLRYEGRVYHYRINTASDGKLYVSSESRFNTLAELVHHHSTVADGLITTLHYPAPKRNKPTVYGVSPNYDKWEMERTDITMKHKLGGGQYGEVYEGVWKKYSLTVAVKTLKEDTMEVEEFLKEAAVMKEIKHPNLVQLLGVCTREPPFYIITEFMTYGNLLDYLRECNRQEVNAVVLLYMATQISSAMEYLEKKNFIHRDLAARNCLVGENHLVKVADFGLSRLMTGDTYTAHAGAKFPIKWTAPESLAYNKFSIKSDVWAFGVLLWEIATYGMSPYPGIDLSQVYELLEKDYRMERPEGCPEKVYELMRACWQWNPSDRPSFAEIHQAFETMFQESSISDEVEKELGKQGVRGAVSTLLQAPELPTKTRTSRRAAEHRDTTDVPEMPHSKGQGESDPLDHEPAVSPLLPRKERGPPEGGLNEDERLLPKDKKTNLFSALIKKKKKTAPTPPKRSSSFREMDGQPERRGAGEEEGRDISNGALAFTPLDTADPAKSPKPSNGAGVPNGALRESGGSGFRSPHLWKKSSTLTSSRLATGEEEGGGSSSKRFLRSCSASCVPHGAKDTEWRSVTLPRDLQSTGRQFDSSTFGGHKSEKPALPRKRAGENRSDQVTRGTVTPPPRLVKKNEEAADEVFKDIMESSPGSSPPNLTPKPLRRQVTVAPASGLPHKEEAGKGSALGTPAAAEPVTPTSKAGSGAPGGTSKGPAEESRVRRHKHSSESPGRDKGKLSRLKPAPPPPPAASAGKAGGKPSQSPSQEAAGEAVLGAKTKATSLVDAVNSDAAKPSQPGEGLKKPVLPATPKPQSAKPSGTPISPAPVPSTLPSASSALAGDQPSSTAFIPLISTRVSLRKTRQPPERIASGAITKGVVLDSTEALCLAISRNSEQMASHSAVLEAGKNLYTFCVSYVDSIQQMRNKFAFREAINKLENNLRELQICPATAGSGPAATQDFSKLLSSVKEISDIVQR

As to `CC(C)(C)c1cc(NC(=O)Nc2ccc(OCCN3CCOCC3)c3ccccc23)n(-c2cccc(CNC(=O)OC/C=C\COC(=O)NCCOCCOCCCCCCCl)c2)n1` [CA-T0], in assay [1], the “binding kinetics to HALOTAG in lysate” value was “lower binding kinetics to HALOTAG”.
With `Nc1ncnc2c1c(-c1ccc(Oc3ccccc3)cc1)nn2[C@@H]1CCCN(C(=O)/C=C/CNC(=O)OC/C=C\COCCOC(=O)NCCOCCOCCCCCCCl)C1` [PBI-6025], the “capture efficiency of BTK:NLuc” value in assay [2] is listed as “reduced capture efficiency relative to PBI-6040”.
For `CC(C)(C)c1cc(NC(=O)Nc2ccc(OCCN3CCOCC3)c3ccccc23)n(-c2cccc(CNC(=O)OCCOCCOCCNC(=O)OC/C=C/COC(=O)NCCOCCOCCOC(=O)NCCOCCOCCCCCCCl)c2)n1` [BIRB796-CA-T4E], in assay [1], the “binding kinetics to HALOTAG in lysate” value is on record as “faster binding to HALOTAG than respective linkers with a cis-double bond; also recorded: most similar to the non-cleavable linker CA-T1”. The “inhibition of TNFα secretion (potency)” value in assay [3] is on record as “potency similar to non-cleavable linker CA-T1”.
With `CC(C)(C)c1cc(NC(=O)Nc2ccc(OCCN3CCOCC3)c3ccccc23)n(-c2cccc(CNC(=O)OC/C=C/COCCOC(=O)NCCOCCOCCCCCCCl)c2)n1` [CA-T2E], the “binding kinetics to HALOTAG in lysate” value in assay [1] is given as “faster binding to HALOTAG than respective linkers with a cis-double bond”.
Take `CC(C)(C)c1cc(NC(=O)Nc2ccc(OCCN3CCOCC3)c3ccccc23)n(-c2cccc(CNC(=O)OC/C=C/COC(=O)NCCOCCOCCOC(=O)NCCOCCOCCCCCCCl)c2)n1` [CA-T3E]: the “binding kinetics to HALOTAG in lysate” value in assay [1] is listed as “faster binding to HALOTAG than respective linkers with a cis-double bond”.
For the molecule `Nc1ncnc2c1c(-c1ccc(Oc3ccccc3)cc1)nn2[C@@H]1CCCN(C(=O)/C=C/CNC(=O)OC/C=C\COC(=O)NCCOCCOCCCCCCCl)C1` [PBI-6041], the “binding kinetics to HALOTAG in lysate” value in assay [1] is “lower binding kinetics to HALOTAG”. Moreover, the “release of NLuc by TEV proteolytic cleavage” value in assay [4] was “lower release”. In addition, the “capture efficiency of BTK:NLuc” value in assay [2] was “reduced capture efficiency relative to PBI-6040”.
In the case of `CC(C)(C)c1cc(NC(=O)Nc2ccc(OCCN3CCOCC3)c3ccccc23)n(-c2cccc(CNC(=O)OCCOCCOCCNC(=O)OC/C=C\COC(=O)NCCOCCOCCOC(=O)NCCOCCOCCCCCCCl)c2)n1` [CA-T4Z], in assay [3], the “inhibition of TNFα secretion (potency)” value is “potency similar to non-cleavable linker CA-T1”.
As for `Nc1ncnc2c1c(-c1ccc(Oc3ccccc3)cc1)nn2[C@@H]1CCCN(C(=O)/C=C/CNC(=O)OC/C=C/COCCOC(=O)NCCOCCOCCCCCCCl)C1` [PBI-6027], the “capture efficiency of BTK:NLuc” value in assay [2] was “reduced capture efficiency relative to PBI-6040”.
Consider `Cc1ccc(C(=O)Nc2ccc(CN3CCN(CCCNC(=O)CCOCCOCCC(=O)NC/C=C/CNC(=O)CCOCCOCCOC(=O)NCCOCCOCCCCCCCl)CC3)c(C(F)(F)F)c2)cc1C#Cc1cnc2cccnn12` [ponatinib-tri-amide], for which, in assay [5], the “decrease of ponatinib potency relative to CA-T4E and all PEG linkers” value is reported as 20 fold. Besides, the “binding kinetics to HALOTAG inside live cells (cellular permeability)” value in assay [6] was “reduced binding kinetics to intracellular HALOTAG”. For the same molecule, the “inhibition of purified ABL1” value in assay [7] is “comparable inhibition of purified ABL1”.
`Nc1ncnc2c1c(-c1ccc(Oc3ccccc3)cc1)nn2[C@@H]1CCCN(C(=O)/C=C/CNC(=O)OC/C=C/COC(=O)NCCOCCOCCOC(=O)NCCOCCOCCCCCCCl)C1` [PBI-6029]: in assay [2], the “capture efficiency of BTK:NLuc” value was “did not interfere with capture efficiency”.
With `Nc1ncnc2c1c(-c1ccc(Oc3ccccc3)cc1)nn2[C@@H]1CCCN(C(=O)/C=C/CNC(=O)OC/C=C\COC(=O)NCCOCCOCCOC(=O)NCCOCCOCCCCCCCl)C1` [PBI-6030], in assay [2], the “capture efficiency of BTK:NLuc” value is “did not interfere with capture efficiency”.
